# Experimental data from US20140205583A1, “USE OF PLP WITH PEG-rMETase IN VIVO FOR ENHANCED EFFICACY” (AntiCancer, Inc., priority 2003, published 2014).
# How the values were obtained:
# [1] = literature comparison; cited from earlier work
# [2] = Pharmacokinetics: plasma enzyme activity following intravenous injection of naked and PEGylated rMETase in mice; format: in vivo, Athymic nude (nu/nu) mice; conditions: for Plasma half-life in mice: 80 U i.v. per mouse, calculated from plasma enzyme activity-time profiles; for Plasma enzyme activity detectable until: 80 units per mouse i.v.
# Protocol: rMETase activity was determined from α-ketobutyrate produced from L-methionine according to the method of Tanaka, H., et al., Biochemistry (1977) 16:100-106, with slight modification. 0.5 ml of sample diluted in 100 mM potassium phosphate buffer pH 8.0, containing 0.01% DTT, 1 mM EDTA Nae, 10 μM PLP and 0.05% Tween 80, was mixed with 0.5 ml of substrate solution containing 100 mM potassium phosphate buffer, pH 8.0, containing 25 mM L-methionine and 10 μM PLP in a glass test tube. The reaction mixture was vortexed immediately and incubated at 37° C. without shaking for precisely 10 minutes. The reaction was stopped by adding 0.5 ml of 50% TCA. The suspension was centrifuged at 13,000 rpm for 2 minutes. The supernatant (0.5 ml) was collected in a glass tube containing 1 ml 1 M acetate buffer, pH 5.0. Then, 0.4 ml MBTH solution containing 0.1% 3-methyl-2-benzothiazolinonehydrazone dihydrochloride monohydrate (Wako Pure Chemical, Osaka, Japan) was added to the tube, mixed well and incubated at 50° C. for 30 minutes. The absorbance of the reaction mixture was measured at 320 nm. The assay was carried out in triplicate. ΔE was calculated by subtracting the average absorbance of blanks from the average absorbance of the reaction mixture. The enzyme activity was calculated by the following equation: Activity (U/ml)=0.548 (1.07+2.2ΔE) ΔE. One unit of enzyme is defined as the amount of enzyme which produced 1 μM of α-ketobutyrate per minute at an infinite concentration of L-methionine.
# (§1) Athymic nude (nu/nu) mice aged 4 weeks (20-25 g) were used for the study with 4 mice per group. Osmotic mini-pumps filled with 250 μl PLP (0.5 g/ml) were implanted subcutaneously. Twenty-four hours after pump implantation, 80 units of native rMETase or PEG-rMETase in 0.5 ml PBS, pH 7.4, were injected via the tail vein in mice with or without PLP pumps. 400 μl of blood was collected from the retroorbital plexus of each animal using heparinized capillary tubes. Blood was collected prior to injection, and 1, 2, 4, 8, 24, 48, 72, 96 and 120 hours post injection. The plasma was separated and stored in small aliquots at −80° C. The plasma enzyme activity, methionine concentration and PLP level in the plasma, collected at the different time points, were measured as described above.
# The mice were injected intravenously with 80 U naked or the indicated PEGylated rMETase. Blood samples were collected at different time points and measured for plasma enzyme activity as described above.
# (§2) 80 U of naked or PEGylated rMETase were injected i.v. in each mouse with or without PLP supplementation. Blood samples were collected at different time points and measured for enzyme activity and methionine concentration as described in the Materials and Methods. Plasma half-life was calculated from the plasma enzyme concentration-time profiles (FIG. 4). Maximum period of methionine depletion below 5 μM is calculated from the plasma methionine levels in FIGS. 5 and 7.
# plasma methionine = test: Plasma methionine depletion following intravenous injection of naked and PEGylated rMETase, with or without PLP pump; format: in vivo, Athymic nude (nu/nu) mice; conditions: for Max. Period of MET depletion below 5 μM, PLP+: with PLP supplementation from s.c. mini-osmotic pump; for Period of plasma methionine depletion below 5 μM relative to naked rMETase: fold longer than naked rMETase; for PLP dependence (ratio of plasma methionine PLP− versus PLP+): ratios at various time points, FIG. 8
# Protocol: The methionine level in the plasma was measured by pre-column derivitization, followed by HPLC separation (Jones, B. N., and Gilligan, J. P., J. Chromatogr. (1983) 266:471-482). Briefly, 10 μl of plasma sample or methionine standard was precipitated with 30 μl of acetonitrile, followed by centrifugation at 10,000 rpm for 5 minutes. 10 μl of the supernatant was mixed with 5 μl of a fluoraldehyde derivative reagent, o-phthaldialdehyde, for 1 minute at room temperature, followed by addition of 150 μl of 0.1 M sodium acetate, pH 7.0. 20 μl of the reaction mixture was loaded on a reversed-phase Supelcosil™ LC-18DB column (25 cm×[…], particle size 5 μm (Supelco, Bellefonte, Pa., USA). The amino acid derivatives were separated by using a gradient elution of 40-60% solution B (Methanol) in solution A (tetrahydrofuran/methanol/0.1M sodium acetate. pH 7.2; 5/95/900) at a flow rate of 1.5 ml/minute. A fluorescence spectrophotometer was used for detection: excitation at 350 nm and emission at 450 nm. The plasma methionine was identified by the retention time of a methionine standard solution and quantitated according to a methionine standard curve.
# as §1, §2
# The mice were injected i.v. with 80 U of naked or the indicated PEGylated rMETase. Blood samples were collected at different time points and measured for plasma methionine concentration as described above.
# In these experiments, 80 U of naked or PEGylated rMETase was injected intravenously in animals with and without PLP supplementation from implanted mini-osmotic pumps. Blood samples were taken at different time points and measured for plasma methionine concentration. […] The plasma methionine levels depleted by the three PEGylated rMETase conjugates were maintained below 2 μM for 48 hours and below 4 μM for 72 hours in case of PEG/rMETase 120 with PLP supplementation (Table 3). At 120 hours after injection of PEG/rMETase, the plasma methionine level depleted by PEG/rMETase 30, PEG/rMETase 60 and PEG/rMETase 120 still remained at 40%, 57% and 22% of normal baseline, respectively (Table 3).
# [3] = test system: plasma anti-rMETase specific antibody; test: Plasma anti-rMETase antibody titer by sandwich ELISA after immunization with FCA; format: in vivo, BALB/c male mice; conditions: mice immunized i.p. with 200 μg in FCA; figures in parentheses = numbers of mice
# Protocol: BALB/c male mice were grouped randomly at 5 per group. Each mouse received three i.p. injections of 0.2 ml (200 μg) naked or PEG-rMETase emulsified in Freund's complete adjuvant (FCA) at weekly intervals. Two weeks following the last injection, a booster injection of the rMETase or PEG-rMETase was given to each mouse. Blood samples were collected two weeks after the booster injection, and plasma was separated and stored at −80° C.
# Plasma anti-rMETase antibody was measured using a sandwich ELISA technique. 100 μl 200 μg/ml rMETase in 0.1 M carbonate coating buffer, pH 9.5, was added to each well of a 96-well microplate and incubated at 4° C. overnight. The plate was washed three times with PBS washing buffer, pH 7.4, containing 0.05% Tween-20, and blocked for 2 hours at room temperature with 200 μl of PBS assay buffer, pH 7.4, containing 10% FBS. After washing three times, 100 μl of 10-fold serial dilutions of the plasma samples in PBS assay buffer were added to appropriate wells and incubated for 2 hours at room temperature, followed by washing. 100 μl optimally diluted goat anti-mouse IgG and IgM subtypes conjugated with horseradish peroxidase (SIGMA, St. Louis, Mo., USA) were added to each well. The plate was incubated for 1 hour at room temperature and washed three times. 100 μl substrate solution containing O-phenylenediamine dihydrochloride (OPD) and hydrogen peroxide (SIGMA, St. Louis, Mo., USA) were added to each well, followed by 30 min incubation at room temperature. 50 μl 2N sulfuric acid were added to each well to stop the color reaction. The absorbance of each well was measured at 492 nm. The antibody titer was determined as the highest plasma dilution at which the extinction at 492 nm generated in the well of the immune plasma exceeded twice the extinction generated in those wells with negative control plasma.
# IgG and IgM anti-rMETase antibody titers of the plasma of the mice immunized with naked or indicated PEGylated rMETase in the presence of FCA were determined using ELISA as described in the Materials and Methods. […]
# cancer cell lines = conditions: wide variety of cancer cell lines, in vitro; cited from earlier work
# [4] = 80 U i.v., with PLP supplementation
# [5] = 80 U i.v., without PLP supplementation
Substance,Plasma half-life [1] [h],Plasma half-life in mice [2] [h],Plasma enzyme activity detectable until [2] [h],Plasma methionine level maintained for 72 hours (plasma methionine; [4]),"Max. Period of MET depletion below 5 μM, PLP+ (plasma methionine; 80 U i.v.) [h]","Plasma methionine level at 120 hours after injection, of normal baseline (plasma methionine; [4]) [%]","Max. Period of MET depletion below 5 μM, PLP− (plasma methionine; [5]) [h]",Period of plasma methionine depletion below 5 μM relative to naked rMETase (plasma methionine; [5]) [fold],PLP dependence (ratio of plasma methionine PLP− versus PLP+) (plasma methionine),Plasma anti-rMETase specific IgM antibody titer [3],"Plasma methionine level reached within 1 hour (plasma methionine; 80 U i.v., baseline 40 μM, without PLP supplementation)",IC50 in cancer cell lines compared to non-neoplastic cells (cancer cell lines)
"PEGylated rMETase with M-SPA-PEG: Literature rMETase PEGylated with M-SPA-PEG, comparison for half-life",0.667,,,,,,,,,,,
PEG/rMETase 120: rMETase conjugated with MEGC-PEG-5000 at molar ratio PEG/rMETase of 120/1,,38,72,below 4 μM,72,22,48,12,lesser PLP dependence than PEG/rMETase 30,10^−3 (5),,
PEG/rMETase 60: rMETase conjugated with MEGC-PEG-5000 at molar ratio PEG/rMETase of 60/1,,18,72,,48,57,24,6,lesser PLP dependence than PEG/rMETase 30,10^−3 (5),,
L-methionine α-deamino-γ-mercaptomethane lyase [Naked rMETase],,,,,4,,4,,,,less than 5 μM,several-fold less
PEG/rMETase 30: rMETase conjugated with MEGC-PEG-5000 at molar ratio PEG/rMETase of 30/1,,12,,,48,40,8,2,,10^−3 (5),,
